According to US5157049A, “Method of treating cancers sensitive to treatment with water soluble derivatives of taxol” (The United States of America as represented by the …, priority 1991, dated 1992):
Values joined by “and” are separate entries in the source; they are usually repeats but may differ in a detail not shown here. Equal entries are not always repeated. “Also recorded” adds a separate entry of the source. Structures can show the parent of a compound that is named as a salt.

Assays:
B16 Melanoma = assay: Antitumor activity in the B16 melanoma system (NCI screen); details: for % T/C (median lifetime) / Survivors Day 4 / WT Diff, g (T - C) / cures (live animals day 60): B16, Q01D × 09; for antitumor activity (in words): summary statements on in vivo screening, Table VI
Experimental: Another approach to make basic derivatives is based on the concept of taking an existing hydrolysable derivative and further modifying it to form a derivative that allows for stepwise hydrolysis.
Antitumor Activity in the B16 Melanoma System^a
^a Screening was carried out under the auspices of the National Cance
Institute. For detailed explanations of procedures and data, see
Instruction 14, Screening Data Summary Interpretation and Outline of
Current Screen, Drug Evaluation Branch, Developmental Therapeutics
Program, Division of Cancer Treatment, National Cancer Institute,
Bethesda, Maryland 20892.
^b Q01D × 09. Single dose for 9 days; given in milligrams per
kilogram body weight per injection.
^c Abbreviations: survivors day 4, live animals on the fourth day of
testing/total animal; wt diff, g (T - C), the difference in body weight i
grams between test and control animals; % T/C, the median lifetime of tes
animals divided by the median lifetime of control animals, times 100; for
the solid tumor system % T/C is 100 × (change in treated tumor wt 1
day 11 - day 0)/change in control tumor wt.) if the tumor grows or 100
× (change in treated tumor wt./initial treated tumor wt.) if the
tumor regresses; cures, number of live animals on the last day of
evaluation for the B16 melanoma system (day 60) or number of animals
without measurable tumor on day 11 for the MX1 mammary tumor system.

Aqueous solubility = details: water
[1] = 7 mg/kg (so in the source) per injection

For `CC(=O)O[C@H]1C(=O)[C@@]2(C)[C@H]([C@H](OC(=O)c3ccccc3)[C@]3(O)C[C@H](OC(=O)[C@H](OC(=O)CCC(=O)O)[C@@H](NC(=O)c4ccccc4)c4ccccc4)C(C)=C1C3(C)C)[C@]1(OC(C)=O)CO[C@@H]1C[C@@H]2O` [Example 11], the “% T/C (median lifetime)” value (B16 Melanoma; 6.25 mg/kg per injection) was 125%, the “% T/C (median lifetime)” value (B16 Melanoma; 12.5 mg/kg per injection) was 134% and the “% T/C (median lifetime)” value (B16 Melanoma; 25 mg/kg per injection) was 176%. For the same compound, the “% T/C (median lifetime)” value (B16 Melanoma; 50 mg/kg per injection) was 241%, the “antitumor activity (in words)” value (B16 Melanoma) was “much more active than the compound of Example 12” and the aqueous solubility (Aqueous solubility) was “about 1%”. For the same compound, the “aqueous solubility (in words)” value (Aqueous solubility) was “greatly improved aqueous solubility; also recorded: although still soluble, the solutions were not clear and became very viscous”.
For `CC(=O)O[C@H]1C(=O)[C@@]2(C)[C@H]([C@H](OC(=O)c3ccccc3)[C@]3(O)C[C@H](OC(=O)[C@H](OC(=O)CCCC(=O)O)[C@@H](NC(=O)c4ccccc4)c4ccccc4)C(C)=C1C3(C)C)[C@]1(OC(C)=O)CO[C@@H]1C[C@@H]2O` [Example 17], the “% T/C (median lifetime)” value (B16 Melanoma; 6.13 mg/kg per injection) was 159%, the “Survivors Day 4” value (B16 Melanoma; 6.13 mg/kg per injection) was 8/8 and the “WT Diff, g (T - C)” value (B16 Melanoma; 6.13 mg/kg per injection) was 0.4 g. For the same compound, the “% T/C (median lifetime)” value (B16 Melanoma; 12.25 mg/kg per injection) was 192%, the “Survivors Day 4” value (B16 Melanoma; 12.25 mg/kg per injection) was 8/8 and the “WT Diff, g (T - C)” value (B16 Melanoma; 12.25 mg/kg per injection) was 0.6 g. For the same compound, the “% T/C (median lifetime)” value (B16 Melanoma; 24.5 mg/kg per injection) was 225%, the “Survivors Day 4” value (B16 Melanoma; 24.5 mg/kg per injection) was 7/7 and the “WT Diff, g (T - C)” value (B16 Melanoma; 24.5 mg/kg per injection) was 1.5 g. The “% T/C (median lifetime)” value (B16 Melanoma; 49 mg/kg per injection) was 339%, the “Survivors Day 4” value (B16 Melanoma; 49 mg/kg per injection) was 7/7 and the “WT Diff, g (T - C)” value (B16 Melanoma; 49 mg/kg per injection) was 0.4 g. For the same compound, the “antitumor activity (in words)” value (B16 Melanoma) was “very active and potent; also recorded: improved biological properties as compared to the corresponding succinates of Examples 12 and 8”.
For `CC(=O)O[C@H]1C(=O)[C@]2(C)[C@@H](OC(=O)CCC(=O)O)C[C@H]3OC[C@@]3(OC(C)=O)[C@H]2[C@H](OC(=O)c2ccccc2)[C@]2(O)C[C@H](OC(=O)[C@H](OC(=O)CCC(=O)O)[C@@H](NC(=O)c3ccccc3)c3ccccc3)C(C)=C1C2(C)C` [Example 2, Na-Salt], the “% T/C (median lifetime)” value (B16 Melanoma; 2.75 mg/kg per injection, listed as 2, Na-Salt) was 120%, the “% T/C (median lifetime)” value (B16 Melanoma; 5.5 mg/kg per injection, listed as 2, Na-Salt) was 114% and the “% T/C (median lifetime)” value (B16 Melanoma; 11 mg/kg per injection) was 149%. For the same compound, the “% T/C (median lifetime)” value (B16 Melanoma; 22 mg/kg per injection, listed as 2, Na-Salt) was 109%, the “% T/C (median lifetime)” value (B16 Melanoma; 44 mg/kg per injection, listed as 2, Na-Salt) was 166% and the “antitumor activity (in words)” value (B16 Melanoma; listed as 2, sodium salt) was “improved antitumor activity as compared to the free acid; also recorded: considerably less active than the corresponding 2'-mono derivative of Example 1 and its salts”. The solubility (Aqueous solubility; aqueous solubility) was roughly 3 mg/mL.
For `CC(=O)O[C@H]1C(=O)[C@]2(C)[C@@H](OC(=O)CCC(=O)O)C[C@H]3OC[C@@]3(OC(C)=O)[C@H]2[C@H](OC(=O)c2ccccc2)[C@]2(O)C[C@H](OC(=O)[C@H](OC(=O)CCC(=O)O)[C@@H](NC(=O)c3ccccc3)c3ccccc3)C(C)=C1C2(C)C` [Example 2, 2'7-Disuccinyltaxol], the “% T/C (median lifetime)” value (B16 Melanoma; 1 mg/kg (so in the source) per injection) was 124%, the “% T/C (median lifetime)” value (B16 Melanoma; 2.75 mg/kg per injection) was 109% and the “% T/C (median lifetime)” value (B16 Melanoma; 5.5 mg/kg per injection) was 113%. The “% T/C (median lifetime)” value (B16 Melanoma; 22 mg/kg per injection) was 105%, the “% T/C (median lifetime)” value (B16 Melanoma; 44 mg/kg per injection) was 114% and the “antitumor activity (in words)” value (B16 Melanoma) was “considerably less active than the corresponding 2'-mono derivative of Example 1 and its salts”. For the same compound, the “aqueous solubility (in words)” value (Aqueous solubility) was “not water soluble”.
With `CC(=O)O[C@H]1C(=O)[C@@]2(C)[C@H]([C@H](OC(=O)c3ccccc3)[C@]3(O)C[C@H](OC(=O)[C@H](OC(=O)CCCC(=O)NCCCN(C)C)[C@@H](NC(=O)c4ccccc4)c4ccccc4)C(C)=C1C3(C)C)[C@]1(OC(C)=O)CO[C@@H]1C[C@@H]2O` [Example 25, Aminoamide Derivative of 2'-Glutaryltaxol] the “antitumor activity (in words)” value (B16 Melanoma) was “extremely potent and active”.
With `CC(=O)O[C@H]1C(=O)[C@@]2(C)[C@H]([C@H](OC(=O)c3ccccc3)[C@]3(O)C[C@H](OC(=O)[C@H](OC(=O)CCC(=O)O)[C@@H](NC(=O)c4ccccc4)c4ccccc4)C(C)=C1C3(C)C)[C@]1(OC(C)=O)CO[C@@H]1C[C@@H]2O` [Example 1, 2' Succinyltaxol] the “% T/C (median lifetime)” value (B16 Melanoma; 2.5 mg/kg per injection) was 119%, the “% T/C (median lifetime)” value (B16 Melanoma; 5 mg/kg per injection) was 154% and the “% T/C (median lifetime)” value (B16 Melanoma; 10 mg/kg per injection) was 159%. The “cures (live animals day 60)” value (B16 Melanoma; 10 mg/kg per injection) was 1, the “% T/C (median lifetime)” value (B16 Melanoma; 20 mg/kg per injection) was 154% and the “% T/C (median lifetime)” value (B16 Melanoma; 40 mg/kg per injection) was 185%. The “cures (live animals day 60)” value (B16 Melanoma; 40 mg/kg per injection) was 2 and the “aqueous solubility (in words)” value (Aqueous solubility) was “not water soluble”.
In the case of `CC(=O)O[C@H]1C(=O)[C@@]2(C)[C@H]([C@H](OC(=O)c3ccccc3)[C@]3(O)C[C@H](OC(=O)[C@H](OC(=O)CCC(=O)O)[C@@H](NC(=O)c4ccccc4)c4ccccc4)C(C)=C1C3(C)C)[C@]1(OC(C)=O)CO[C@@H]1C[C@@H]2O` [Example 12], the “% T/C (median lifetime)” value (B16 Melanoma; 1.25 mg/kg per injection) is reported as 111%, the “% T/C (median lifetime)” value (B16 Melanoma; 2.5 mg/kg per injection) is reported as 159% and 125% and the “cures (live animals day 60)” value (B16 Melanoma; 2.5 mg/kg per injection) is reported as 1. For the same compound, the “% T/C (median lifetime)” value (B16 Melanoma; 5 mg/kg per injection) was 166% and 131%, the “% T/C (median lifetime)” value (B16 Melanoma; 10 mg/kg per injection) was 183% and 160% and the “cures (live animals day 60)” value (B16 Melanoma; 10 mg/kg per injection) was 1. The “% T/C (median lifetime)” value (B16 Melanoma; 20 mg/kg per injection) was 201% and 160%, the “% T/C (median lifetime)” value (B16 Melanoma; 40 mg/kg per injection) was 218% and 177% and the “cures (live animals day 60)” value (B16 Melanoma; 40 mg/kg per injection) was 2. For the same compound, the “antitumor activity (in words)” value (B16 Melanoma; listed as 1, sodium salt) was “improved antitumor activity as compared to the free acid” and the aqueous solubility (Aqueous solubility; listed as 1, sodium salt) was “about 0.1%”.
For `CC(=O)O[C@H]1C(=O)[C@@]2(C)[C@H]([C@H](OC(=O)c3ccccc3)[C@]3(O)C[C@H](OC(=O)[C@H](OC(=O)CCCC(=O)O)[C@@H](NC(=O)c4ccccc4)c4ccccc4)C(C)=C1C3(C)C)[C@]1(OC(C)=O)CO[C@@H]1C[C@@H]2O` [Example 16], the “% T/C (median lifetime)” value (B16 Melanoma; 6.63 mg/kg per injection) was 207%, the “Survivors Day 4” value (B16 Melanoma; 6.63 mg/kg per injection) was 8/8 and the “WT Diff, g (T - C)” value (B16 Melanoma; 6.63 mg/kg per injection) was 0.4 g. For the same compound, the “% T/C (median lifetime)” value (B16 Melanoma; 13.25 mg/kg per injection) was 291%, the “Survivors Day 4” value (B16 Melanoma; 13.25 mg/kg per injection) was 8/8 and the “WT Diff, g (T - C)” value (B16 Melanoma; 13.25 mg/kg per injection) was 0.4 g. The “% T/C (median lifetime)” value (B16 Melanoma; 26.5 mg/kg per injection) was 239%, the “Survivors Day 4” value (B16 Melanoma; 26.5 mg/kg per injection) was 8/8 and the “WT Diff, g (T - C)” value (B16 Melanoma; 26.5 mg/kg per injection) was 0.4 g. The “cures (live animals day 60)” value (B16 Melanoma; 26.5 mg/kg per injection) was 2, the “% T/C (median lifetime)” value (B16 Melanoma; 53 mg/kg per injection) was 300% and the “Survivors Day 4” value (B16 Melanoma; 53 mg/kg per injection) was 8/8. For the same compound, the “WT Diff, g (T - C)” value (B16 Melanoma; 53 mg/kg per injection) was 0.4 g, the “cures (live animals day 60)” value (B16 Melanoma; 53 mg/kg per injection) was 1 and the “antitumor activity (in words)” value (B16 Melanoma) was “very active and potent; also recorded: improved biological properties as compared to the corresponding succinates of Examples 12 and 8”.
In the case of `CC(=O)O[C@H]1C(=O)[C@@]2(C)[C@H]([C@H](OC(=O)c3ccccc3)[C@]3(O)C[C@H](OC(=O)[C@H](OC(=O)CCC(=O)O)[C@@H](NC(=O)c4ccccc4)c4ccccc4)C(C)=C1C3(C)C)[C@]1(OC(C)=O)CO[C@@H]1C[C@@H]2O` [Example 8, 2'-Succinyltaxol, Triethanolamine Salt], the “% T/C (median lifetime)” value (B16 Melanoma; 6.75 mg/kg per injection) is reported as 230%, the “cures (live animals day 60)” value (B16 Melanoma; 6.75 mg/kg per injection) is reported as 1 and the “% T/C (median lifetime)” value (B16 Melanoma; [1]) is reported as 314%. The “cures (live animals day 60)” value (B16 Melanoma; [1]) was 3, the “% T/C (median lifetime)” value (B16 Melanoma; 13.5 mg/kg per injection) was 264% and the “cures (live animals day 60)” value (B16 Melanoma; 13.5 mg/kg per injection) was 1. For the same compound, the “% T/C (median lifetime)” value (B16 Melanoma; 54 mg/kg per injection) was “TOXIC”, the “antitumor activity (in words)” value (B16 Melanoma) was “much more active than the compound of Example 12; also recorded: especially active and potent” and the aqueous solubility (Aqueous solubility) was “about 1%”. The “aqueous solubility (in words)” value (Aqueous solubility) was “greatly improved aqueous solubility; also recorded: although still soluble, the solutions were not clear and became very viscous”.
